From patent US7655801B2, “Substituted carbamic acid quinolin-6-yl esters useful as acetylcholinesterase inhibitors” (priority 2004, dated 2010)

Legend:
[1] = system: scopolamine induced deficit (dementia/amnesia) in mice; assay: Scopolamine induced amnesia, single trial passive avoidance test; format: in vivo; conditions: test compounds 20 μmol/kg orally, donepezil 10 mg/kg po; for % Learning ([2nd Trial − 1st trial/1st trial] × 100): scopolamine group 33.6, trained control 274.9; for change in vivo at 20 µmol/kg: Mus musculus, read-out: % Improvement in Learning (% Learning in treated gp − % Learning in Scopolamine gp)
Procedure: Single trial passive avoidance is widely used as experimental test to assess learning memory functions in rodents.
Passive Avoidance Test (in vivo): Study was conducted in adult Swiss male mice of 3-4 months (wt. 20-25 g) which were kept in standard housing condition with 12 h light and dark cycle. Food and water were available ad libitum. […] Passive avoidance test was studied by a computerized shuttle box (Columbus Instruments, Ohio, USA) provided with a software program PACS 30. The shuttle box comprises of two compartments, isolated by an automated door. […] Each mouse was placed in the bright compartment and on transfer into the dark compartment it was given an electric shock (0.5 mA for 5 s) through floor grid. Transfer of mice from bright to dark compartment was recorded as transfer latency time (TLT) in seconds. TLT was recorded in control and treated groups (1st Trial, acquisition) and then after 24 hours (2nd Trial, retention). An increase in the TLT on 2nd Trial (retention) as compared to 1st Trial (acquisition) was taken as the criterion for successful learning and memory (cognitive activity).
Scopolamine induced deficit (Dementia): Scopolamine a muscarinic antagonist, known to produce impairment in cognitive functions (dementia) in human as well as in experimental animals, was used to produce deficit (no significant increase on 2nd trial) in passive avoidance learning. Scopolamine was administered 5 min prior to 1st trial. Reversal of scopolamine induced deficit i.e. significant increase in 2nd trial by test substance indicates potential anti-dementia activity. […].
Drug administration: Scopolamine was administered 5 min prior to 1st trial in test group. Each test compound was administered orally in dose of 20 μmol/kg (1% aq. suspension in gum acacia) 1 hour prior to 2nd trial in scopolamine treated mice (n=5). Scopolamine control group received 1 ml/kg of vehicle (1% aq. suspension in gum acacia) orally. […] Donepezil (10 mg/kg, po, as 1% aqueous suspension in gum acacia) was used as standard drug and given 1 hour prior to 2nd trial in scopolamine treated mice.
Statistical analysis: Mean values and standard error (S.E.) of mean were calculated for TLT and specific activity of AChE in the different regions of brain samples of each group. The significance of difference between the values of AChe activity and TLT between the groups was determined by one-way ANOVA test that followed by Dunnett's test.

AChE = molecular target: T1, AChE (Rattus norvegicus, UniProt P37136); assay: Inhibitive effect on acetylcholinesterase activity (Ellman method, rat brain homogenate supernatant); format: biochemical; conditions: for Cholinesterase Enzyme Activity in presence of active drug: control AChE activity 0.014446; for % Cholinesterase Enzyme Activity in presence of active drug: relative to control AChE activity
T1 construct: Aliquots of this supernatant was diluted in the ratio of 1:10 and used as a source of enzyme for the assay; from tissue; host or cells: whole brain of adult male SD rats; 10% homogenate with Triton X-100, 100,000 x g supernatant
T1 sequence (P37136 32-614): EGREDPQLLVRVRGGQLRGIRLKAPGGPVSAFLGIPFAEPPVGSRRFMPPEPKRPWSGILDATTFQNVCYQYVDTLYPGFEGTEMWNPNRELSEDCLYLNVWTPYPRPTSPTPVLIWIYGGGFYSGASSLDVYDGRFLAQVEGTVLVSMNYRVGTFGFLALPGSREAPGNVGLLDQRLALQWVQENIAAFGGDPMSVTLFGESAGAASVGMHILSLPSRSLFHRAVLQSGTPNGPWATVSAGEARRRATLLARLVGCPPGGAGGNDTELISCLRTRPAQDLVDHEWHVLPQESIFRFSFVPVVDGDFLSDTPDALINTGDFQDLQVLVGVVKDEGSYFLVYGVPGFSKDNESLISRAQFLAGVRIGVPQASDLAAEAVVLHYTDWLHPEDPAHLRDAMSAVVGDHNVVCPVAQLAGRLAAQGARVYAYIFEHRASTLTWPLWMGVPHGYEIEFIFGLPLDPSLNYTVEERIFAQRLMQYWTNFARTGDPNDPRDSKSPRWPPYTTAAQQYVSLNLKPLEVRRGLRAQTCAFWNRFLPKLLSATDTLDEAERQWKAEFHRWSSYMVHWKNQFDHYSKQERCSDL
Procedure: The study was conducted in adult SD male rats (200-250 g) Rats were perfused under mild ether anesthesia through heart with ice cooled normal saline (0.9% NaCl) to reduce blood-borne cholinesterase from brain. After perfusion whole brain was taken out. 10% (w/v) homogenate of brain was prepared first by homogenizing in Ultra-Turrax T25 homogenizer at a speed of 9500 rpm thrice giving intervals for few seconds in between the runs, with sodium phosphate buffer (30 mmol/lit, pH 7.0). Sodium phosphate buffer was taken in a volume half to the final volume required for 10% homogenate. 1% Triton X-100 (1% w/v in 30 mmol/lit. sodium phosphate buffer, pH 7.0) is then added in a volume to make the final volume for 10% homogenate, slowly while stirring the homogenate on ice.
Kinetic profile of the enzyme activity was studied spectrophotometrically at 412 nm at an interval of 15 s. Assay for each sample was run in duplicate and each experiment was performed thrice.
[…] Tacrine (1 μmol) was used as standard AChe inhibitor (standard control). The AChe inhibitory activity was calculated on the basis of % decrease change from control values i.e. AChe acivity without incubation with any standard or test drug.

[2] = scopolamine treated mice, 1 hour prior to 2nd trial

Structure (SMILES)	2nd TRIAL (retention, after 24 hours) transfer latency time (TLT) [1, 2] [s]	% Learning ([2nd Trial − 1st trial/1st trial] × 100) ([1]; scopolamine treated mice) [%]	% Improvement in Learning (% Learning in treated gp − % Learning in Scopolamine gp) [1] [%]	other results
CCCCCCCNC(=O)Oc1ccc2ncccc2c1 [1b, Heptyl-Carbamic Acid quinolin-6-yl ester]	238	140.4	106.8	
O=C(Nc1ccccc1Cl)Oc1ccc2ncccc2c1 [1c]	230	156.7	123.09	1st TRIAL (acquisition) transfer latency time (TLT) [1, 2]: 89.6 s
O=C(Nc1cccc(Br)c1)Oc1ccc2c(c1)CCCN2 [2c, (3-Bromo-phenyl)-carbamic acid 1,2,3,4-tetrahydro-quinolin-6-yl ester]	195	101	67.4	
CCCCCCNC(=O)Oc1ccc2c(c1)CCCN2Cc1ccccc1 [2h, Hexyl-carbamic acid 1-benzyl-1,2,3,4-tetrahydro-quinolin-6-yl ester]	205	122.8	89.2	
O=C(Nc1ccccc1Cl)Oc1ccc2c(c1)CCCN2Cc1ccccc1 [2i, (2-Chloro-phenyl)carbamic acid 1-benzyl-1,2,3,4-tetrahydro-quinolin-6 yl ester]	186.4	123.2	89.6	Cholinesterase Enzyme Activity in presence of active drug (AChE; drug conc. 0.1 μm): 0.01351 μmol/mg of protein/min; % Cholinesterase Enzyme Activity in presence of active drug (AChE; drug conc. 0.1 μm): 93.54%; Cholinesterase Enzyme Activity in presence of active drug (AChE; drug conc. 0.3 μm): 0.01211 μmol/mg of protein/min; % Cholinesterase Enzyme Activity in presence of active drug (AChE; drug conc. 0.3 μm): 83.87%; Cholinesterase Enzyme Activity in presence of active drug (AChE; drug conc. 1 μm): 0.01071 μmol/mg of protein/min; % Cholinesterase Enzyme Activity in presence of active drug (AChE; drug conc. 1 μm): 74.19%; Cholinesterase Enzyme Activity in presence of active drug (AChE; drug conc. 3 μm): 0.007456 μmol/mg of protein/min; Cholinesterase Enzyme Activity in presence of active drug (AChE; drug conc. 10 μm): 0.001864 μmol/mg of protein/min; % Cholinesterase Enzyme Activity in presence of active drug (AChE; drug conc. 10 μm): 12.90%; % Cholinesterase Enzyme Activity in presence of active drug (AChE): 51.61%
CN1CCCc2cc(OC(=O)Nc3ccc(Cl)c(C(F)(F)F)c3)ccc21 [2q, (4-Chloro-3-trifluoromethyl-phenyl)-carbamic acid 1-methyl-1,2,3,4-tetrahydro-quinolin-6-yl ester]	218	109		change in vivo at 20 µmol/kg ([1]; scopolamine treated mice): 76%
CN1CCCc2cc(OC(=O)Nc3ccc(Br)cc3)ccc21 [2r, (4-bromophenyl)carbamic acid 1-methyl-1,2,3,4-tetrahydroquinolin-6-yl ester]	242	95.6		change in vivo at 20 µmol/kg ([1]; scopolamine treated mice): 62%
COc1cc2c(cc1OC)C(=O)C(CC1CCN(Cc3ccccc3)CC1)C2 (centres unmarked) [DONEPEZIL, donepezil, reference compound]	245	168	134.4	
